Measured values taken from ChEMBL document CHEMBL1201862, “PubChem BioAssay data set” (2004).

Tests used:
Cytochrome P450 2C19 = Cytochrome P450 2C19 (Homo sapiens, UniProt P33261); experiment: Cytochrome panel assay with activity outcomes. Panel member name: p450-cyp2c19 Compounds with AC50 equal or less than 10 uM are considered active; assay type: functional
Cytochrome P450 2D6 = Cytochrome P450 2D6 (Homo sapiens, UniProt P10635);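 further: CYP2D6 member of a cytochrome P450 panel assay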
Cytochrome P450 2C9 = Cytochrome P450 2C9 (Homo sapiens, UniProt P11712)
Cytochrome P450 3A4 = Cytochrome P450 3A4 (Homo sapiens, UniProt P08684);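 further: CYP3A4 tested as one member of a cytochrome P450 panel screen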
Cytochrome P450 3A4, sequence (P08684 whole entry): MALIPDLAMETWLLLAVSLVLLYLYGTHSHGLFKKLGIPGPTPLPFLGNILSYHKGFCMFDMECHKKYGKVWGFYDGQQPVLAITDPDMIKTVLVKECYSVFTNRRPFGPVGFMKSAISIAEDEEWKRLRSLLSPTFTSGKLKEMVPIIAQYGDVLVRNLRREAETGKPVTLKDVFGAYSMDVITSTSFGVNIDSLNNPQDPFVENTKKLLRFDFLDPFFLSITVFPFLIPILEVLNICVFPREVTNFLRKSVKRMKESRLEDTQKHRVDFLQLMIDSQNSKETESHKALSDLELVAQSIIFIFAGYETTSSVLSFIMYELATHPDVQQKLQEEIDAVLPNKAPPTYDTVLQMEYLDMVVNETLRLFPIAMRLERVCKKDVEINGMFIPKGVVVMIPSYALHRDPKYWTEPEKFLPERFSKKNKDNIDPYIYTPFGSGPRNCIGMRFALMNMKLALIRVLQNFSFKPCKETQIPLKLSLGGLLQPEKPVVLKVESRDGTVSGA

Cytochrome P450 2C19, sequence (P33261 whole entry): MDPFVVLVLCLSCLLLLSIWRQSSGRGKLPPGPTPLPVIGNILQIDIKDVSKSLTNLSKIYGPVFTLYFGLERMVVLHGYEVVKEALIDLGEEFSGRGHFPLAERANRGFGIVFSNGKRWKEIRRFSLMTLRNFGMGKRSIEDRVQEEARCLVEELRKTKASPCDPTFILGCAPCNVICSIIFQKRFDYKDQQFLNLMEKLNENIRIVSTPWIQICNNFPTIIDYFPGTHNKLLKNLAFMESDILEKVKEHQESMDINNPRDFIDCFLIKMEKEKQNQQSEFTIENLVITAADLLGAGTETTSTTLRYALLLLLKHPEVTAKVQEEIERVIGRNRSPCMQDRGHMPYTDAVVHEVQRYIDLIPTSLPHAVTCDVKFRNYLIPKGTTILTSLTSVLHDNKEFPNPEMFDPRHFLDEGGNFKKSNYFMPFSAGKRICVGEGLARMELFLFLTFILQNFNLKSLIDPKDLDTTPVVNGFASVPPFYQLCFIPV
Cytochrome P450 2D6, sequence (P10635 whole entry): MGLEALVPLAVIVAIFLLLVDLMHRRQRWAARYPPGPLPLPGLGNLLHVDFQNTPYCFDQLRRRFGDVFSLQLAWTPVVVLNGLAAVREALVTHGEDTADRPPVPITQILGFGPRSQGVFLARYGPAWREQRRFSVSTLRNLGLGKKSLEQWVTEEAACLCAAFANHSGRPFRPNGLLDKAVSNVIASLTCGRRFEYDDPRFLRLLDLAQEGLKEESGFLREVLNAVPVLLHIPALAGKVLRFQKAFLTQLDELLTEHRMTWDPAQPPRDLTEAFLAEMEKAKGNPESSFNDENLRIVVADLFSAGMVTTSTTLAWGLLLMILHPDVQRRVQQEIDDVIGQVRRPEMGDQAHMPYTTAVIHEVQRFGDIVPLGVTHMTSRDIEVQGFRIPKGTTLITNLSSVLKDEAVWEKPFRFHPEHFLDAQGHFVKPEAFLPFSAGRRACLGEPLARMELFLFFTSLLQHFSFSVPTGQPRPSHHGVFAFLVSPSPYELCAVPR
Cytochrome P450 2C9, sequence (P11712 whole entry): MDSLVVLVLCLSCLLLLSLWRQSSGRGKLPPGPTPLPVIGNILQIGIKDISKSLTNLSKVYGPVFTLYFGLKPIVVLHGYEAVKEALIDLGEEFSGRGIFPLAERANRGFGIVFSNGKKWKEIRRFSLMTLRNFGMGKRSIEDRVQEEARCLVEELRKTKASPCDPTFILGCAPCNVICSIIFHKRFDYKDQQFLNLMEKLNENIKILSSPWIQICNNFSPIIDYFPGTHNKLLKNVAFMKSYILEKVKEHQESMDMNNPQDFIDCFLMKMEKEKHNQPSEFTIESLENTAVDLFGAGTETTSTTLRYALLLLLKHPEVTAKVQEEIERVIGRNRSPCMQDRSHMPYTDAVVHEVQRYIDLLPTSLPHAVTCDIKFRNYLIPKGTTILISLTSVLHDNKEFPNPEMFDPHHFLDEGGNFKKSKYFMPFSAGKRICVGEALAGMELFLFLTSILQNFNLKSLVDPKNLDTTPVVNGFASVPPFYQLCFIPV

Structure (SMILES)	AC50 (Cytochrome P450 2D6)	AC50 (Cytochrome P450 2C9)	AC50 (Cytochrome P450 3A4)	other results
CCN(CC)CCNC(=O)Cn1nc(-c2ccc(C)cc2)ccc1=O	22.4 µM (inconclusive)			AC50 (Cytochrome P450 2C19): inconclusive
N=c1nc(N)nc(N)n1-c1ccc(S(N)(=O)=O)cc1	3.98 µM (inconclusive)			
CCCCNC(=O)C1CC(=O)N(c2ccc(OC)cc2)C1c1ccc(OC)cc1 (stereo not given)	15.8 µM (inconclusive)	25.1 µM (inconclusive)		AC50 (Cytochrome P450 2C19; read-out: AC50): 25.1 µM (inconclusive)
C/C(CCN1CCCCc2nc(C)c(C)cc21)=N\OC[C@@H](C)[C@H](OCc1ccccc1)C(C)C			3.16 µM (inconclusive)	
CCCc1ccc(Oc2cc(C)nc(N3CCOCC3)n2)cc1	14.1 µM (inconclusive)			
Cc1ccc(S(=O)(=O)N(C)CC(=O)ONC(=N)c2ccccn2)cc1			22.4 µM (inconclusive)	AC50 (Cytochrome P450 2C19): inconclusive
Cc1cc(-c2cccs2)nc(-n2cccc2)n1			31.6 µM (inconclusive)	AC50 (Cytochrome P450 2C19; read-out: AC50): 5.62 µM (inconclusive)
CO[C@H]1COC(=O)[C@@H](Cc2ccccc2)NC(=O)[C@@H](C)COC(=O)C/C=C\[C@@H]1C			6.31 µM (inconclusive)	
O=C(NCCc1ccccc1)C(=O)NN=C1CCCC1			31.6 µM (inconclusive)	AC50 (Cytochrome P450 2C19; read-out: AC50): 0.355 µM (inconclusive)
Cc1cc(Nc2ccc(Cl)cc2)nc(N)n1			5.62 µM (inconclusive)	AC50 (Cytochrome P450 2C19; read-out: AC50): 8.91 µM (inconclusive)
O=c1c(-c2ccc(F)cc2)nc2cnc(N3CCNCC3)nc2n1Cc1ccc(F)cc1	20 µM (inconclusive)	31.6 µM (inconclusive)		AC50 (Cytochrome P450 2C19; read-out: AC50): 39.8 µM (inconclusive)
N#Cc1cccc(-c2nc(N3CCNCC3)c3ccccc3n2)c1	39.8 µM (inconclusive)			
COc1cccc(Cn2c(=O)c(-c3cccc(C#N)c3)nc3cnc(N4CCN(C)CC4)nc32)c1			25.1 µM (inconclusive)	
O=S(=O)(N=C(Nc1ccccn1)c1ccccc1)c1ccc(Cl)cc1		11.2 µM (inconclusive)	1.41 µM (inconclusive)	
COc1ccc(C=O)cc1COc1ccc(C)cc1[N+](=O)[O-]	14.1 µM (inconclusive)	4.47 µM (inconclusive)		
N#CCCn1c(=O)c(-c2ccccc2)nc2cnc(OCc3ccccc3)nc21			7.94 µM (inconclusive)	AC50 (Cytochrome P450 2C19; read-out: AC50): 39.8 µM (inconclusive)
N#Cc1ccccc1-c1ccc2ncnc(NCc3cccnc3)c2c1			2 µM (inconclusive)	
CCNc1ncc2nc(-c3ccc(Cl)cc3)c(=O)n(Cc3cccs3)c2n1	25.1 µM (inconclusive)	31.6 µM (inconclusive)		
CNc1nc(-c2ccccc2CN(C)C)nc2ccccc12			25.1 µM (inconclusive)	
O=C(Nc1ccccc1)N1CCCC2(CCN(C(=O)c3ccco3)CC2)C1		25.1 µM (inconclusive)	15.8 µM (inconclusive)	
COc1ccc(NC(=O)COC(=O)c2c3c(nc4ccccc24)CCCC3)cc1			0.891 µM (inconclusive)	
Cc1ccccc1-c1cc(N(C)Cc2ccco2)ncn1	39.8 µM (inconclusive)			
CC[C@H](c1ccccc1)c1cc(C(C)(C)C)cc(C(C)(C)C)c1O		7.94 µM (inconclusive)	5.01 µM (inconclusive)	
Cn1cccc1C(=O)N1CCC[C@@]2(CCN(Cc3nccs3)C2)C1	31.6 µM (inconclusive)	31.6 µM (inconclusive)		
COc1ccc(-c2nnn(CC(=O)NCCc3c[nH]c4ccccc34)n2)cc1OC	0.0126 µM (inconclusive)			
COc1ccc(C(=O)Nc2ccc(S(=O)(=O)N3CCOCC3)cc2)cc1OC	0.00794 µM (inconclusive)	28.2 µM (inconclusive)		AC50 (Cytochrome P450 2C19; read-out: AC50): 8.91 µM (inconclusive)
CC(=O)N(NC(=O)c1ccccc1Cl)C1CC(=O)N(c2ccc(C)cc2)C1=O (stereo not given)		14.1 µM (inconclusive)	20 µM (inconclusive)	AC50 (Cytochrome P450 2C19; read-out: AC50): 1 µM (inconclusive)
COc1ccc(C2(C(=O)N3CCOCC3)CCCC2)cc1			12.6 µM (inconclusive)	
CCCCN(Cc1ccccc1)C(=O)c1cnc2n(c1=O)CCS2	31.6 µM (inconclusive)	8.91 µM (inconclusive)		
